Test results reported in the supplement of paper PMC10307832.

Assays:
Assay in all cases: relative viability (nuclei count vs DMSO), 5 days (fraction); higher = more cells survive
[1] = compound: CC1=CN2C(=O)C=C(N=C2C(=C1)C(C)NC3=CC=CC=C3)N4CCOCC4 [TGX 221] + CC1(C)CCC(c2ccc(Cl)cc2)=C(CN2CCN(c3ccc(C(=O)NS(=O)(=O)c4ccc(N[C@H](CCN5CCOCC5)CSc5ccccc5)c(S(=O)(=O)C(F)(F)F)c4)cc3)CC2)C1 [Navitoclax] (partner 0.5 µM)
How it was run: (§1)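 Relative viability equals treated-well nuclei counts divided by vehicle-well nuclei counts. Counts came from 4× images of lung cancer cell lines grown in 1536-well plates for 5 days after pin-tool dosing on the day after seeding. Dosing used one drug alone or a fixed anchor-drug dose plus five library-drug doses (not always all listed) in √10 steps, and values are medians of duplicate plates.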

[2] = compound: CC1=CN2C(=O)C=C(N=C2C(=C1)C(C)NC3=CC=CC=C3)N4CCOCC4 [TGX 221] + Cc1nc(NC(=O)N2CCC[C@H]2C(N)=O)sc1-c1ccnc(C(C)(C)C(F)(F)F)c1 [Alpelisib] (partner 2 µM)
How it was run: as §1

[3] = compound: CC1=CN2C(=O)C=C(N=C2C(=C1)C(C)NC3=CC=CC=C3)N4CCOCC4 [TGX 221] + COc1cc2c(Oc3ccc(NC(=O)C4(C(=O)Nc5ccc(F)cc5)CC4)cc3F)ccnc2cc1OCCCN1CCOCC1 [Foretinib] (partner 0.25 µM)
How it was run: as §1

[4] = compound: O=C(CCCCCCNC(=O)c1cnc(N(c2ccccc2)c2ccccc2)nc1)NO [Ricolinostat] + CC(=O)Nc1cccc(-n2c(=O)n(C3CC3)c(=O)c3c(Nc4ccc(I)cc4F)n(C)c(=O)c(C)c32)c1 [Trametinib] (partner 0.02 µM)
How it was run: as §1

Cell Line	relative viability ([1]; first compound 0.08 µM)	relative viability ([1]; first compound 0.253 µM)	relative viability ([1]; first compound 0.8 µM)	relative viability ([1]; first compound 2.53 µM)	relative viability ([1]; first compound 8 µM)	relative viability ([2]; first compound 0.08 µM)	relative viability ([2]; first compound 0.253 µM)	relative viability ([2]; first compound 0.8 µM)	relative viability ([2]; first compound 2.53 µM)	relative viability ([2]; first compound 8 µM)	relative viability ([3]; first compound 0.08 µM)	relative viability ([3]; first compound 0.253 µM)	relative viability ([3]; first compound 0.8 µM)	relative viability ([3]; first compound 2.53 µM)	relative viability ([3]; first compound 8 µM)	relative viability ([4]; first compound 0.08 µM)	relative viability ([4]; first compound 0.253 µM)	relative viability ([4]; first compound 0.8 µM)	relative viability ([4]; first compound 2.53 µM)
NCI-H441	0.494	0.529	0.599	0.998	0.797	0.889	0.723	0.717	0.768	0.848	1.11	0.849	0.919	0.897	0.96	0.259	0.521	0.629	0.697
SW 1573	0.814	0.811	0.926	0.821	0.753	0.63	0.495	0.577	0.433	0.393	0.889	0.881	0.975	0.822	0.851	0.468	0.55	0.593	0.596
PC-3 [JPC-3]	0.722	0.768	0.847	0.806	0.863	1.01	0.978	1	0.929	0.894	1	1.03	1.05	0.947	0.972	0.662	0.641	0.713	0.633
201T	–	1.26	1.21	1.19	1.15	–	0.942	0.943	0.872	0.827	1.22	1.09	1.13	0.931	0.817	0.713	0.709	0.689	0.772
LK-2	0.98	0.84	0.81	0.996	0.948	1.02	1.05	0.959	0.665	1	1.2	1.2	1.53	1.17	0.998	0.756	1.04	0.817	0.718
NCI-H727	0.383	0.317	0.491	0.332	0.365	0.591	0.436	0.484	0.557	0.513	0.876	1.05	1.16	1.12	1.05	0.383	0.416	0.412	0.355
